# Measured values published in paper PMC3853718 (Journal of Translational Medicine, 2013).
# System: subjects with advanced malignancies
# Experiment: Phase 1 dose escalation: toxicity, safety and tolerability (DLT, MAD, RP2D, AEs)
# Conditions: for TEAE: Abdominal distension / TEAE: Abdominal pain / TEAE: Anemia / TEAE: Asthenia / TEAE: Back pain / TEAE: Constipation / TEAE: Cough / TEAE: Decreased appetite / TEAE: Dehydration / TEAE: Diarrhea / TEAE: Dizziness / TEAE: Dyspnea / TEAE: Fatigue / TEAE: Flatulence / TEAE: Hyperbilirubinemia / TEAE: Hyperglycemia / TEAE: Hyperuricemia / TEAE: Hypokalemia / TEAE: Hypophosphatemia / TEAE: Increased ALP / TEAE: Increased ALT / TEAE: Increased AST / TEAE: Nausea / TEAE: Neutropenia / TEAE: Peripheral edema / TEAE: Pyrexia / TEAE: Subjects with any AE / TEAE: Urinary tract infection / TEAE: Vomiting / TEAE: Weight decreased: ≤ 5.08 mg/m^2 (n = 22)
# Procedure: Subjects continued on treatment until there was disease progression, unacceptable toxicity, or the subject withdrew consent. The trial employed an accelerated titration design [16] starting at a dose of 0.33 mg/m^2 (one-sixth of the highest nontoxic dose in dogs).
# the dose was doubled in sequential subjects until a DLT was observed or a subject experienced grade 2 toxicity [16]. In the case of an observed grade 2 toxicity, a second subject was enrolled at the same dose level. If the second subject also experienced a grade 2 toxicity, 2 additional subjects were accrued at that dose level for a total of 4 subjects. […] Each subject was allocated to only a single dose level of drug. Dose delay or modification was permitted based on laboratory and clinical assessment performed on the day of treatment.
# Dose-limiting toxicities were determined during the first cycle for each dose level. A DLT was defined as any grade 3 or 4 hematologic toxicity lasting for at least 1 week, or as any grade 3 or 4 nonhematologic toxicity. […] Normal alkaline phosphatase level (< grade 1) at screening that rose to greater than or equal to grade 3; grade 1 or 2 alkaline phosphatase level at screening that rose to grade 4; grade 1 or 2 aspartate aminotransferase (AST) and/or alanine aminotransferase (ALT) levels at screening that doubled from baseline to become greater than or equal to grade 3; and any other abnormal nonhematology laboratory value greater than or equal to grade 3 that required medical intervention to treat, led to hospitalization, or persisted for at least 1 week were also considered DLTs.
# Adverse events were graded based on the National Cancer Institute Common Terminology Criteria for Adverse Events (NCI CTCAE version 3.0) and were coded using the Medical Dictionary for Regulatory Activities (MedDRA version 13.0).
compound,measurement,setting,value
CCc1cnn2c(NCc3ccc[n+]([O-])c3)cc(N3CCCC[C@H]3CCO)nc12 [dinaciclib],Subjects with DLT in cycle 1,"Dose level 14 mg/m^2, 5 subjects",2
same,treatment-related AE: anemia,"RP2D 12 mg/m^2, 11 subjects",5 [45%] subjects [%]
same,treatment-related AE: asthenia,"RP2D 12 mg/m^2, 11 subjects",3 [27%] subjects [%]
same,treatment-related AE: fatigue,"RP2D 12 mg/m^2, 11 subjects",4 [36%] subjects [%]
same,treatment-related AE: hyperuricemia,"RP2D 12 mg/m^2, 11 subjects",3 [27%] subjects [%]
same,treatment-related AE: nausea,"RP2D 12 mg/m^2, 11 subjects",3 [27%] subjects [%]
same,treatment-related AE: neutropenia,"RP2D 12 mg/m^2, 11 subjects",4 [36%] subjects [%]
same,treatment-related AE: pyrexia,"RP2D 12 mg/m^2, 11 subjects",3 [27%] subjects [%]
same,treatment-related AE: vomiting,"RP2D 12 mg/m^2, 11 subjects",3 [27%] subjects [%]
same,Serious adverse events,"Subject 2901, Breast carcinoma, 0.33 mg/m^2, regardless of causality","Anemia, confusion, lethargy"
same,Serious adverse events,"Subject 2914, Ovarian epithelial carcinoma, 3.63 mg/m^2, regardless of causality","Constipation, nausea, abdominal pain, vomiting"
same,Serious adverse events,"Subject 2915, Adenocarcinoma, 3.63 mg/m^2, regardless of causality","Hypocalcemia, hypokalemia, hypophosphatemia, coagulation time prolonged"
same,Serious adverse events,"Subject 2919, Colon cancer, 3.63 mg/m^2, regardless of causality","Back pain, chest pain, dyspnea"
same,Serious adverse events,"Subject 2920, Melanoma, 3.63 mg/m^2, regardless of causality","Cholelithiasis, liver disorder"
same,Serious adverse events,"Subject 2922, Ovarian epithelial cancer, 3.63 mg/m^2, regardless of causality","Intestinal ischemia, pericardial effusion"
same,Serious adverse events,"Subject 2926, Pelvic sarcoma, 7.11 mg/m^2, regardless of causality","Deep vein thrombosis, anemia"
same,Serious adverse events,"Subject 2927, Gastric adenocarcinoma, 7.11 mg/m^2, regardless of causality","Vomiting, aspiration"
same,Serious adverse events,"Subject 2928, Gastrointestinal stromal tumor, 7.11 mg/m^2, regardless of causality","Gastric ulcer, hematemesis, asthenia, sepsis, dyspnea, mental status changes, overdose"
same,Serious adverse events,"Subject 2930, SCLC, 7.11 mg/m^2, regardless of causality",Cardiac arrest
same,Serious adverse events,"Subject 2931, Esophageal carcinoma, 7.11 mg/m^2, regardless of causality","Esophageal obstruction, pyrexia, hemorrhagic anemia"
same,Serious adverse events,"Subject 2937, Adenoid cyst carcinoma, 14 mg/m^2, regardless of causality","Pneumothorax, cardiac tamponade, pneumoperitoneum, intestinal perforation, peritonitis, sepsis"
same,Serious adverse events,"Subject 2940, Breast carcinoma, 14 mg/m^2, regardless of causality",Death
same,Serious adverse events,"Subject 2945, NSCLC, 12 mg/m^2, regardless of causality",Cerebrovascular accident
same,Serious adverse events,"Subject 2947, Colorectal cancer, 12 mg/m^2, regardless of causality","Pelvic abscess, septic shock, deep vein thrombosis"
same,Serious adverse events,"Subject 2950, Colon cancer, 12 mg/m^2, regardless of causality","Deep vein thrombosis, bradycardia, respiratory failure, syncope, tumor lysis syndrome"
same,Serious adverse events,"Subject 2951, Ovarian metastatic cancer, 12 mg/m^2, regardless of causality","Anemia, neutropenic sepsis, sepsis, gastrointestinal hemorrhage, diarrhea, bacterial infection, neutropenia, thrombocytopenia"
same,SAE: anemia,all dose levels,3 (6%) subjects (%)
same,SAE: deep vein thrombosis,all dose levels,3 (6%) subjects (%)
same,SAE: sepsis,all dose levels,3 (6%) subjects (%)
same,grade 3 or 4 treatment-related AE: hyperuricemia,all dose levels,3 [6%] subjects [%]
same,grade 3 or 4 treatment-related AE: neutropenia,all dose levels,5 [10%] subjects [%]
same,subjects with AEs leading to discontinuation of treatment,all dose levels,6 (13%) subjects (%)
same,subjects with grade 3 or 4 treatment-related AEs,all dose levels,16 subjects
same,subjects with serious AEs (SAEs),all dose levels,17 (33%) subjects (%)
same,treatment-related AE: anemia,all dose levels,10 [21%] subjects [%]
same,treatment-related AE: fatigue,all dose levels,7 [15%] subjects [%]
same,treatment-related AE: nausea,all dose levels,16 [33%] subjects [%]
same,treatment-related AE: neutropenia,all dose levels,8 [17%] subjects [%]
same,treatment-related AE: vomiting,all dose levels,8 [17%] subjects [%]
same,subjects reporting treatment-emergent adverse events,"all dose levels, 48 treated",47 (98%) subjects (%)
same,subjects with AEs possibly related to study drug,"all dose levels, 48 treated",35 (73%) subjects (%)
same,instances of grade 2 toxicity,at 1.32 mg/m^2,2
same,deaths due to disease progression,"of 52 enrolled, considered unlikely related to study treatment",7 [13%] subjects [%]
same,deaths due to AEs,"of 52 enrolled, deemed unlikely related to dinaciclib, one subject never treated",4 (8%) subjects (%)
same,subjects who died during this study,of the 52 subjects enrolled,21%
same,TEAE: Abdominal distension,All grades,3 (14) n (%)
same,TEAE: Abdominal pain,All grades,4 (18) n (%)
same,TEAE: Anemia,All grades,8 (36) n (%)
same,TEAE: Asthenia,All grades,4 (18) n (%)
same,TEAE: Back pain,All grades,8 (36) n (%)
same,TEAE: Constipation,All grades,5 (23) n (%)
same,TEAE: Cough,All grades,3 (14) n (%)
same,TEAE: Decreased appetite,All grades,9 (41) n (%)
same,TEAE: Dehydration,All grades,8 (36) n (%)
same,TEAE: Diarrhea,All grades,3 (14) n (%)
same,TEAE: Dizziness,All grades,0 n (%)
same,TEAE: Dyspnea,All grades,3 (14) n (%)
same,TEAE: Fatigue,All grades,7 (32) n (%)
same,TEAE: Flatulence,All grades,3 (14) n (%)
same,TEAE: Hyperbilirubinemia,All grades,5 (23) n (%)
same,TEAE: Hyperglycemia,All grades,1 (5) n (%)
same,TEAE: Hyperuricemia,All grades,1 (5) n (%)
same,TEAE: Hypokalemia,All grades,2 (9) n (%)
same,TEAE: Hypophosphatemia,All grades,4 (18) n (%)
same,TEAE: Increased ALP,All grades,3 (14) n (%)
same,TEAE: Increased ALT,All grades,3 (14) n (%)
same,TEAE: Increased AST,All grades,3 (14) n (%)
same,TEAE: Nausea,All grades,6 (27) n (%)
same,TEAE: Neutropenia,All grades,0 n (%)
same,TEAE: Peripheral edema,All grades,3 (14) n (%)
same,TEAE: Pyrexia,All grades,3 (14) n (%)
same,TEAE: Subjects with any AE,All grades,21 (95) n (%)
same,TEAE: Urinary tract infection,All grades,5 (23) n (%)
same,TEAE: Vomiting,All grades,2 (9) n (%)
same,TEAE: Weight decreased,All grades,4 (18) n (%)
same,TEAE: Abdominal distension,Grade 3–4,0 n (%)
same,TEAE: Abdominal pain,Grade 3–4,1 (5) n (%)
same,TEAE: Anemia,Grade 3–4,1 (5) n (%)
same,TEAE: Asthenia,Grade 3–4,2 (9) n (%)
same,TEAE: Back pain,Grade 3–4,3 (14) n (%)
same,TEAE: Constipation,Grade 3–4,0 n (%)
same,TEAE: Cough,Grade 3–4,0 n (%)
same,TEAE: Decreased appetite,Grade 3–4,0 n (%)
same,TEAE: Dehydration,Grade 3–4,0 n (%)
same,TEAE: Diarrhea,Grade 3–4,0 n (%)
same,TEAE: Dizziness,Grade 3–4,0 n (%)
same,TEAE: Dyspnea,Grade 3–4,1 (5) n (%)
same,TEAE: Fatigue,Grade 3–4,2 (9) n (%)
same,TEAE: Flatulence,Grade 3–4,0 n (%)
same,TEAE: Hyperbilirubinemia,Grade 3–4,3 (14) n (%)
same,TEAE: Hyperglycemia,Grade 3–4,0 n (%)
same,TEAE: Hyperuricemia,Grade 3–4,1 (5) n (%)
same,TEAE: Hypokalemia,Grade 3–4,1 (5) n (%)
same,TEAE: Hypophosphatemia,Grade 3–4,3 (14) n (%)
same,TEAE: Increased ALP,Grade 3–4,1 (5) n (%)
same,TEAE: Increased ALT,Grade 3–4,1 (5) n (%)
same,TEAE: Increased AST,Grade 3–4,1 (5) n (%)
same,TEAE: Nausea,Grade 3–4,0 n (%)
same,TEAE: Neutropenia,Grade 3–4,0 n (%)
same,TEAE: Peripheral edema,Grade 3–4,0 n (%)
same,TEAE: Pyrexia,Grade 3–4,0 n (%)
same,TEAE: Subjects with any AE,Grade 3–4,11 (50) n (%)
same,TEAE: Urinary tract infection,Grade 3–4,0 n (%)
same,TEAE: Vomiting,Grade 3–4,1 (5) n (%)
same,TEAE: Weight decreased,Grade 3–4,0 n (%)
